Like-named read-outs stand apart in the source and are kept apart here.
Columns and labels:
[1] = Mouse blood (serum) antibiotic levels after single intramuscular dose; type: in vivo; conditions: im, mice, 40 mg./kg. i.m., read-out: Blood Level
Procedure: Serum antibiotic levels from mice administered a single intramuscular dose of 40 mg./kg. of BL-[…] or carbenicillin are shown below.

[2] = test system: Pseudomonas aeruginosa; test: Minimum Bactericidal Concentration of BL-P1937, at least 99.9% kill, three inoculum sizes; type: cell-based
Procedure: The bactericidal in vitro activity of BL-P1937 against Pseudomonas aeruginosa strains was also determined. Three tests were run, using initial inoculum sizes of 2.4 × 10^5, 1.6 × 10^5 and 1.4 × 10^5 cells/ml., respectively, and the M.B.C. was defined as the lowest concentration of antibiotic in mcg./ml. needed to kill at least 99.9% of viable Pseudomonas cells.

[3] = test system: Pseudomonas aeruginosa; test: Minimum Inhibitory Concentration, tube dilution, overnight incubation at 37° C.; type: cell-based
[4] = test system: Pseudomonas aeruginosa; conditions: prior art; cited from earlier work
[5] = mice, 40 mg./kg. i.m., Literature values, cited from earlier work
[6] = mice, 40 mg./kg. i.m., Literature values, cited from earlier work; remark: listed apart in the source

CC1(C)S[C@@H]2[C@H](NC(=O)[C@H](NC(=O)c3n[nH]c(=S)[nH]c3=O)c3ccc(O)cc3)C(=O)N2[C@H]1C(=O)O [BL-P1937, sodium D(-)-6-(α-(1,2,4-triazine-3-thione-5-one-6-carboxamido)-4-hydroxyphenylacetamido)-penicillanate]
concentration at 0.25 h ([1]; 15 min.): 19900 ng/mL | concentration at 0.5 h ([1]; 30 min.): 10300 ng/mL | concentration at 1 h ([1]; 60 min.): < 2200 ng/mL | concentration at 1.5 h ([1]; 90 min.): < 2200 ng/mL | MBC ([2]; strain A9843A, Test 1, inoculum 2.4 × 10^5): 125 µg/mL | MBC ([2]; strain A9910, Test 1, inoculum 2.4 × 10^5, read-out: M.B.C.): 125 µg/mL | MBC ([2]; strain A9910, Test 2, inoculum 1.6 × 10^5, read-out: M.B.C.): 250 µg/mL | MBC ([2]; strain A9910, Test 3, inoculum 1.4 × 10^5, read-out: M.B.C.): 500 µg/mL | MBC ([2]; strain A9926, Test 1, inoculum 2.4 × 10^5, read-out: M.B.C.): 250 µg/mL | MBC ([2]; strain A9926, Test 2, inoculum 1.6 × 10^5, read-out: M.B.C.): 1000 µg/mL | MBC ([2]; strain A9926, Test 3, inoculum 1.4 × 10^5, read-out: M.B.C.): 250 µg/mL | MBC ([2]; strain A20126, Test 1, inoculum 2.4 × 10^5, read-out: M.B.C.): 16 µg/mL | MBC ([2]; strain A20126, Test 2, inoculum 1.6 × 10^5, read-out: M.B.C.): 63 µg/mL | MBC ([2]; strain A20126, Test 3, inoculum 1.4 × 10^5, read-out: M.B.C.): 63 µg/mL | MBC ([2]; strain A20128, Test 1, inoculum 2.4 × 10^5, read-out: M.B.C.): 16 µg/mL | MBC ([2]; strain A20128, Test 2, inoculum 1.6 × 10^5, read-out: M.B.C.): 16 µg/mL | MBC ([2]; strain A20128, Test 3, inoculum 1.4 × 10^5, read-out: M.B.C.): 63 µg/mL | MBC ([2]; strain A20227, Test 1, inoculum 2.4 × 10^5, read-out: M.B.C.): 63 µg/mL | MBC ([2]; strain A20227, Test 2, inoculum 1.6 × 10^5, read-out: M.B.C.): 8 µg/mL | MBC ([2]; strain A20227, Test 3, inoculum 1.4 × 10^5, read-out: M.B.C.): 16 µg/mL | MBC ([2]; strain A20228, Test 1, inoculum 2.4 × 10^5, read-out: M.B.C.): 125 µg/mL | MBC ([2]; strain A20228, Test 2, inoculum 1.6 × 10^5, read-out: M.B.C.): 500 µg/mL | MBC ([2]; strain A20228, Test 3, inoculum 1.4 × 10^5, read-out: M.B.C.): 250 µg/mL | MBC ([2]; strain A20546, Test 1, inoculum 2.4 × 10^5, read-out: M.B.C.): 250 µg/mL | MBC ([2]; strain A20546, Test 2, inoculum 1.6 × 10^5, read-out: M.B.C.): 1000 µg/mL | MBC ([2]; strain A20546, Test 3, inoculum 1.4 × 10^5, read-out: M.B.C.): 500 µg/mL | MBC ([2]; strain A20557, Test 1, inoculum 2.4 × 10^5, read-out: M.B.C.): 250 µg/mL | MBC ([2]; strain A20557, Test 2, inoculum 1.6 × 10^5, read-out: M.B.C.): 1000 µg/mL | MBC ([2]; strain A20557, Test 3, inoculum 1.4 × 10^5, read-out: M.B.C.): 500 µg/mL | MBC ([2]; strain A20574, Test 1, inoculum 2.4 × 10^5, read-out: M.B.C.): 250 µg/mL | MBC ([2]; strain A20574, Test 2, inoculum 1.6 × 10^5, read-out: M.B.C.): 250 µg/mL | MBC ([2]; strain A20574, Test 3, inoculum 1.4 × 10^5, read-out: M.B.C.): 500 µg/mL | MBC ([2]; strain A20602, Test 1, inoculum 2.4 × 10^5, read-out: M.B.C.): 250 µg/mL | MBC ([2]; strain A20602, Test 2, inoculum 1.6 × 10^5, read-out: M.B.C.): 500 µg/mL | MBC ([2]; strain A20602, Test 3, inoculum 1.4 × 10^5, read-out: M.B.C.): 500 µg/mL | MBC ([2]; strain A20616, Test 1, inoculum 2.4 × 10^5, read-out: M.B.C.): 125 µg/mL | MBC ([2]; strain A20616, Test 2, inoculum 1.6 × 10^5, read-out: M.B.C.): 250 µg/mL | MBC ([2]; strain A20616, Test 3, inoculum 1.4 × 10^5, read-out: M.B.C.): 500 µg/mL | MBC ([2]; strain A20641, Test 1, inoculum 2.4 × 10^5, read-out: M.B.C.): 125 µg/mL | MBC ([2]; strain A20641, Test 2, inoculum 1.6 × 10^5, read-out: M.B.C.): 250 µg/mL | MBC ([2]; strain A20641, Test 3, inoculum 1.4 × 10^5, read-out: M.B.C.): 250 µg/mL | MBC ([2]; strain A20717, Test 1, inoculum 2.4 × 10^5, read-out: M.B.C.): 500 µg/mL | MBC ([2]; strain A20717, Test 2, inoculum 1.6 × 10^5, read-out: M.B.C.): 1000 µg/mL | MBC ([2]; strain A20717, Test 3, inoculum 1.4 × 10^5, read-out: M.B.C.): > 1000 µg/mL | MBC ([2]; strain A20726, Test 1, inoculum 2.4 × 10^5, read-out: M.B.C.): 32 µg/mL | MBC ([2]; strain A20726, Test 2, inoculum 1.6 × 10^5, read-out: M.B.C.): 250 µg/mL | MBC ([2]; strain A20726, Test 3, inoculum 1.4 × 10^5, read-out: M.B.C.): 500 µg/mL | MBC ([2]; strain A21336, Test 1, inoculum 2.4 × 10^5, read-out: M.B.C.): 250 µg/mL | MBC ([2]; strain A21336, Test 2, inoculum 1.6 × 10^5, read-out: M.B.C.): 500 µg/mL | MBC ([2]; strain A21336, Test 3, inoculum 1.4 × 10^5, read-out: M.B.C.): 500 µg/mL | MIC ([3]; strain A9910, Test 1): 1 µg/mL | MIC ([3]; strain A9910, Test 2): 2 µg/mL | MIC ([3]; strain A9910, Test 3): 4 µg/mL | MIC ([3]; strain A9926, Test 1): 2 µg/mL | MIC ([3]; strain A9926, Test 2): 4 µg/mL | MIC ([3]; strain A9926, Test 3): 2 µg/mL | MIC ([3]; strain A20126, Test 2): 8 µg/mL | MIC ([3]; strain A20126, Test 3): 4 µg/mL | MIC ([3]; strain A20128, Test 1): 2 µg/mL | MIC ([3]; strain A20128, Test 2): 2 µg/mL | MIC ([3]; strain A20128, Test 3): 2 µg/mL | MIC ([3]; strain A20227, Test 1): 4 µg/mL | MIC ([3]; strain A20227, Test 2): 4 µg/mL | MIC ([3]; strain A20227, Test 3): 2 µg/mL | MIC ([3]; strain A20228, Test 1): 2 µg/mL | MIC ([3]; strain A20228, Test 2): 8 µg/mL | MIC ([3]; strain A20228, Test 3): 2 µg/mL | MIC ([3]; strain A20546, Test 1): 2 µg/mL | MIC ([3]; strain A20546, Test 2): 2 µg/mL | MIC ([3]; strain A20546, Test 3): 2 µg/mL | MIC ([3]; strain A20557, Test 1): 2 µg/mL | MIC ([3]; strain A20557, Test 2): 4 µg/mL | MIC ([3]; strain A20557, Test 3): 4 µg/mL | MIC ([3]; strain A20574, Test 1): 4 µg/mL | MIC ([3]; strain A20574, Test 2): 2 µg/mL | MIC ([3]; strain A20574, Test 3): 2 µg/mL | MIC ([3]; strain A20602, Test 1): 4 µg/mL | MIC ([3]; strain A20602, Test 2): 8 µg/mL | MIC ([3]; strain A20602, Test 3): 2 µg/mL | MIC ([3]; strain A20616, Test 1): 2 µg/mL | MIC ([3]; strain A20616, Test 2): 4 µg/mL | MIC ([3]; strain A20616, Test 3): 4 µg/mL | MIC ([3]; strain A20641, Test 1): 8 µg/mL | MIC ([3]; strain A20641, Test 2): 8 µg/mL | MIC ([3]; strain A20641, Test 3): 8 µg/mL | MIC ([3]; strain A20717, Test 1): 16 µg/mL | MIC ([3]; strain A20717, Test 2): 32 µg/mL | MIC ([3]; strain A20717, Test 3): 16 µg/mL | MIC ([3]; strain A20726, Test 1): 2 µg/mL | MIC ([3]; strain A20726, Test 2): 8 µg/mL | MIC ([3]; strain A20726, Test 3): 8 µg/mL | MIC ([3]; strain A21336, Test 1): 4 µg/mL | MIC ([3]; strain A21336, Test 2): 8 µg/mL | MIC ([3]; strain A21336, Test 3): 4 µg/mL

CC1(C)S[C@@H]2[C@H](NC(=O)C(C(=O)O)c3ccccc3)C(=O)N2[C@H]1C(=O)O (stereo partly shown) [Carbenicillin, reference compound]
potency against Pseudomonas aeruginosa [4]: relatively low potency | Blood Level ([5]; 15 min.): 18100 ng/mL | Blood Level ([5]; 30 min.): 8100 ng/mL | Blood Level ([5]; 60 min.): < 4600 ng/mL | Blood Level ([5]; 90 min.): < 4600 ng/mL | Blood Level ([6]; 15 min.): 18100 ng/mL | Blood Level ([6]; 30 min.): 8100 ng/mL | Blood Level ([6]; 60 min.): < 4600 ng/mL | Blood Level ([6]; 90 min.): < 4600 ng/mL
